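In this assay, cells in 96-well plates receive the compound at five concentrations for 48 hours. Endpoints are linearly interpolated between the surrounding concentrations. The concentration for full growth arrest is given as TGI.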
Assays:
Experiment in all cases: inhibition of tumour cell growth, NCI panel, 48 h
SF-539 CNS = test system: SF-539 CNS
ACHN renal = test system: ACHN renal
UACC-62 melanoma = test system: UACC-62 melanoma
HCT-116 colon = test system: HCT-116 colon
SN12C renal = test system: SN12C renal
NCI-H522 lung = test system: NCI-H522 lung
KM12 colon = test system: KM12 colon
OVCAR-8 ovarian = test system: OVCAR-8 ovarian
HL-60(TB) leukemia = test system: HL-60(TB) leukemia
SK-OV-3 ovarian = test system: SK-OV-3 ovarian

Row | SMILES | TGI (SF-539 CNS) [µM] | TGI (ACHN renal) [µM] | TGI (UACC-62 melanoma) [µM] | TGI (HCT-116 colon) [µM] | TGI (SN12C renal) [µM] | TGI (NCI-H522 lung) [µM] | TGI (KM12 colon) [µM] | TGI (OVCAR-8 ovarian) [µM] | TGI (HL-60(TB) leukemia) [µM] | TGI (SK-OV-3 ovarian) [µM]
1 | COC(=O)c1c(C#C[Si](C)(C)C)c(C#C[Si](C)(C)C)c(C#C[Si](C)(C)C)c(C#C[Si](C)(C)C)c1C(=O)OC | > 100 | > 100 | > 100 | > 100 | > 100 | > 100 | > 100 | > 100 | > 100 | > 100
2 | COc1ccc(N2C(=O)/C(=C/c3ccc(N(CCC#N)CCC#N)cc3)N=C2c2ccccc2)c(OC)c1 | > 100 | > 100 | > 100 | > 100 | > 100 | 74.1 | > 100 | > 100 | > 100 | > 100
3 | O=c1/c(=C/c2ccc(-c3ccc(Cl)cc3Cl)o2)sc2n1[C@@H](c1ccc3c(c1)OCO3)C=C(c1cc(F)c(Cl)cc1Cl)N=2 | > 100 | > 100 | > 100 | > 100 | > 100 | > 100 | > 100 | > 100 | > 100 | 62.1
4 | CC(C)CC(NC(=O)C(COc1ccc([N+](=O)[O-])cc1)Cc1ccccc1)C(=O)Nc1ccccc1 (stereo not given) | 18.9 | > 100 | 30.9 | > 100 | > 100 | 55.2 | 21.5 | 27.4 | > 100 | 28.5
5 | C=C1C(=O)O[C@H]2C3C(=C(C)CC[C@@H]12)C(=O)[C@@H]1OC31C (stereo not given in full) | 6.75 | 8.07 | 5.69 | 2.7 | 3.18 | 2.91 | 20.2 | 5.42 | 0.469 | 29.4
6 | CCCC(=O)OC1CC(n2cc(F)c(=O)[nH]c2=O)OC1CO (stereo not given) | 0.385 | > 10 | > 10 | > 10 | > 10 | > 10 | > 10 | > 10 | > 10 | > 10
7 | OC(O)(C(F)(F)F)C(F)(F)F | > 100 | > 100 | > 100 | > 100 | > 100 | > 100 | > 100 | > 100 | > 100 | > 100
8 | N#Cc1c(C#N)c(-c2ccccc2)n(/N=C\c2ccccc2)c1N | 55.1 | > 100 | 41.5 | > 100 | > 100 | 49.5 | > 100 | > 100 | > 100 | 70.2
9 | CSC1NNC2(C(=O)N1)c1ccccc1-c1ccccc12 (stereo not given) | > 10 | > 10 | > 10 | > 10 | > 10 | > 10 | > 10 | > 10 | > 10 | > 10
10 | Cc1nn(-c2ccccn2)c2c1C(SC#N)=C(C=O)CC2 | 36.1 | 29.8 | 18.3 | 37.1 | 40.3 | 46 | 32.7 | 30.8 | 16 | 61.5
11 | CCOC(=O)CCC(C(=O)OCC)n1nnc2cc(Nc3c(C)[n+]([O-])c4ccc(Cl)cc4[n+]3[O-])ccc21 (stereo not given) | > 100 | > 100 | > 100 | > 100 | > 100 | > 100 | > 100 | > 100 | > 100 | > 100
12 | COC(=O)[C@@H]1O[C@]12[C@@H](CO[Si](C)(C)C(C)(C)C)O[C@@H](n1cc(C)c(=O)[nH]c1=O)[C@@H]2O[Si](C)(C)C(C)(C)C | 75.3 | 33 | 34.8 | 29.9 | 27.9 | 30.1 | > 100 | 53.4 | 5.47 | > 100
13 | c1ccc2c(c1)c1c3n2-c2cc(on2)C3CCC1 (stereo not given) | > 100 | > 100 | > 100 | > 100 | > 100 | > 100 | > 100 | > 100 | > 100 | > 100
14 | O=c1oc2ccccc2c(O)c1Cc1cccc(Cc2c(O)c3ccccc3oc2=O)c1 | > 100 | > 100 | > 100 | > 100 | > 100 | > 100 | > 100 | > 100 | > 100 | > 100
15 | Cn1c(=O)c2[nH]c(CCC(=O)O)nc2n(C)c1=O | > 100 | > 100 | > 100 | > 100 | > 100 | > 100 | > 100 | > 100 | > 100 | > 100
16 | CC(=O)Nc1ccc(/C=C(\NC(=O)c2ccccc2)C(=O)NNS(=O)(=O)c2ccc(C)cc2)cc1 | > 100 | > 100 | > 100 | > 100 | > 100 | > 100 | > 100 | > 100 | > 100 | > 100
17 | COC(=O)C1[C@H](C(=O)OC)C1(Br)CBr (stereo not given in full) | > 100 | > 100 | > 100 | > 100 | > 100 | > 100 | > 100 | > 100 | > 100 | > 100
18 | CCOC(=O)C1=C(C)N(c2ccc(C)cc2)C2(O)C=CC(=O)C3=C(O)c4ccccc4C(=O)C312 (stereo not given) | 44.1 | 50.1 | > 100 | > 100 | > 100 | 34.7 | > 100 | > 100 | 0.039 | > 100
19 | O=C(NCc1cccnc1)C(=O)NCc1cccnc1 | > 100 | > 100 | > 100 | > 100 | > 100 | > 100 | > 100 | > 100 | 64.7 | > 100
20 | N#Cc1c(-c2ccc(Cl)cc2)cc(-c2nc3ccccc3[nH]2)nc1N | 31.7 | 45.2 | 21.2 | 22.5 | 27.5 | 35.1 | 25.1 | 49.5 | 58.7 | 77.4
